Results on 34 compounds are retold here after patent publication US10195189B2, “2-phenethenyltetrahydro isoquinolines useful as anti-HIV compounds” (priority 2014, dated 2019).

Broadly, the EC50 is the concentration giving half of the maximal effect. Low values mean higher potency in that assay, high ones lower potency in that assay.

The test relates to HIV-1 NL4-3 viral clone expressing Renilla luciferase. Put plainly: microbe, parasite or virus in culture. In kind it is cell-based. To be noted: Human immunodeficiency virus 1, NL43, MT2, 96 h. The essentials: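 MT-2 cells (2×10^4/well) were infected at MOI 0.027 with Renilla-luciferase HIV-1 NL4-3 alongside 3-fold compound dilutions for 96 h. Spread was read by EnduRen luminescence and supernatant infectivity on TZM-bl (48 h, MUG fluorescence). Mock-infected cytotoxicity used AlamarBlue. % inhibition versus solvent was fitted by 4-parameter logistic (0–100% constrained) for EC50/CC50.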

Compound `COc1cc2c(cc1OCc1ccccc1)CCNC2/C=C/c1ccc(OC)c(C)c1C` (stereo not shown) [EL, 6-Benzyloxy-7-methoxy-1-[(E)-2-(4-methoxy-2,3-dimethyl-phenyl)vinyl]-1,2,3,4-tetrahydroisoquinoline] returned an EC50 of 150 nM.
With `COc1ccc(/C=C/C2NCCc3cc(OCc4ccccc4)c(OC)cc32)cc1CN1CCCCC1` (stereo not shown) [EM, 6-Benzyloxy-7-methoxy-1-[(E)-2-[4-methoxy-3-(1-piperidylmethyl)phenyl]vinyl]-1,2,3,4-tetrahydroisoquinoline] the figure was 320 nM; with `COc1ccc(/C=C/C2NCCc3cc(OCc4ccccc4)c(OC)cc32)cc1Cn1ccnc1C` (stereo not shown) [EN, 6-Benzyloxy-7-methoxy-1-[(E)-2-[4-methoxy-3-[(2-methylimidazol-1-yl)methyl]phenyl]vinyl]-1,2,3,4-tetrahydroisoquinolin], 189 nM.
Next, `COc1ccc(/C=C/C2NCCc3cc(OCc4ccccc4)c(OC)cc32)cc1COCC(F)(F)F` (stereo not shown) [EO, 6-Benzyloxy-7-methoxy-1-[(E)-2-[4-methoxy-3-(2,2,2-trifluoroethoxymethyl)phenyl]vinyl]-1,2,3,4-tetrahydroisoquinoline]: 504 nM.
Next, `COc1cc2c(cc1OCc1ccccc1)CCNC2/C=C/c1ccc(C(=O)O)cc1` (stereo not shown) [EQ, 4-[(E)-2-(6-benzyloxy-7-methoxy-1,2,3,4-tetrahydroisoquinolin-1-yl)vinyl]benzoic acid]: 7040 nM; `COc1cc2c(cc1OCc1ccccc1)CCNC2/C=C/c1cccc(C(=O)O)c1` (stereo not shown) [ER, 3-[(E)-2-(6-benzyloxy-7-methoxy-1,2,3,4-tetrahydroisoquinolin-1-yl)vinyl]benzoic acid]: 10000 nM; `COc1cc2c(cc1OCc1ccccc1)CCNC2/C=C/c1ccccc1C(=O)O` (stereo not shown) [ES, 2-[(E)-2-(6-benzyloxy-7-methoxy-1,2,3,4-tetrahydroisoquinolin-1-yl)vinyl]benzoic acid]: 8620 nM.
Regarding `CCOC(=O)c1ccccc1/C=C/C1NCCc2cc(OCc3ccccc3)c(OC)cc21` (stereo not shown) [ET, Ethyl 2-[(E)-2-(6-benzyloxy-7-methoxy-1,2,3,4-tetrahydroisoquinolin-1-yl)vinyl]benzoate], the midpoint of the response, the EC50, lay at 2480 nM.
The compound `COc1ccc(CCC2NCCc3cc(OC)c(OC)cc32)cc1OC` (stereo not shown) [Example A, 1-[2-(3,4-Dimethoxyphenyl)ethyl]-6,7-dimethoxy-1,2,3,4-tetrahydroisoquinoline] came in with an EC50 of 10000 nM. This EC50 is about 4-fold higher than that of the compound before.
Next, `CCc1cc(OC)c(OCc2ccccc2)cc1/C=C/C1NCCc2cc(OCc3ccccc3)c(OC)cc21` (stereo not shown) [Example AA, 6-benzyloxy-1-[(E)-2-(5-benzyloxy-2-ethyl-4-methoxy-phenyl)vinyl]-7-methoxy-1,2,3,4-tetrahydroisoquinoline]: 148 nM; `COc1ccc(/C=C/C2NCCc3cc(OCc4ccccc4)c(OC)cc32)cc1OCc1ccccc1` (stereo not shown) [Example AB, 6-benzyloxy-1-[(E)-2-(3-benzyloxy-4-methoxy-phenyl)vinyl]-7-methoxy-1,2,3,4-tetrahydroisoquinoline]: 146 nM.
The compound `COc1cc(Cl)c(/C=C/C2NCCc3cc(OCc4ccccc4)c(OC)cc32)cc1OCc1ccccc1` (stereo not shown) [Example AC, 6-benzyloxy-1-[(E)-2-(5-benzyloxy-2-chloro-4-methoxy-phenyl)vinyl]-7-methoxy-1,2,3,4-tetrahydroisoquinoline] displayed an EC50 of 87.2 nM.
With `COc1cc2c(cc1OCc1ccccc1)CCNC2/C=C/c1cc(OCc2ccccc2)ccc1C` (stereo not shown) [Example AD, 6-benzyloxy-1-[(E)-2-(5-benzyloxy-2-methyl-phenyl)vinyl]-7-methoxy-1,2,3,4-tetrahydroisoquinoline] the figure was 84 nM.
Next, `COc1cc(C)c(/C=C/C2=NCCc3cc(OCc4ccccc4)c(OC)cc32)cc1OCc1ccccc1` [Example AE, 6-benzyloxy-1-[(E)-2-(5-benzyloxy-4-methoxy-2-methyl-phenyl)vinyl]-7-methoxy-3,4-dihydroisoquinoline]: 440 nM.
As to `COc1ccc(/C=C/C2NCCc3cc(OCc4ccccc4)c(OC)cc32)c(C)c1` (stereo not shown) [Example AG, 6-benzyloxy-7-methoxy-1-[(E)-2-(4-methoxy-2-methyl-phenyl)vinyl]-1,2,3,4-tetrahydroisoquinoline], a half-maximal response (EC50) required 77.1 nM.
`COc1cc(C)c(/C=C/C2NCCc3cc(OCc4ccccc4)c(OC)cc32)cc1OC` (stereo not shown) [Example AH, 6-benzyloxy-1-[(E)-2-(4,5-dimethoxy-2-methyl-phenyl)vinyl]-7-methoxy-1,2,3,4-tetrahydroisoquinoline] had an EC50 of 13.3 nM.
With `COCCCCOc1cc(OC)ccc1/C=C/C1NCCc2cc(OCc3ccccc3)c(OC)cc21` (stereo not shown) [Example AI, (E)-6-(benzyloxy)-7-methoxy-1-(4-methoxy-2-(4-methoxybutoxy)styryl)-1,2,3,4-tetrahydroisoquinoline] the figure was 1500 nM; with `COc1cc2c(cc1OCc1ccccc1)CCNC2/C=C/c1ccc(OC(F)(F)F)cc1C` (stereo not shown) [Example AJ, (E)-6-(benzyloxy)-7-methoxy-1-(2-methyl-4-(trifluoromethoxy)styryl)-1,2,3,4-tetrahydroisoquinoline], 2740 nM; with `COc1cc2c(cc1OCc1ccccc1)CCNC2/C=C/c1ccnn1C` (stereo not shown) [Example AK, 6-benzyloxy-7-methoxy-1-[(E)-2-(2-methylpyrazol-3-yl)vinyl]-1,2,3,4-tetrahydroisoquinoline], 8870 nM.
Turning to `CCn1cc(/C=C/C2NCCc3cc(OCc4ccccc4)c(OC)cc32)cn1` (stereo not shown) [Example AL, 6-Benzyloxy-1-[(E)-2-(1-ethylpyrazol-4-yl)vinyl]-7-methoxy-1,2,3,4-tetrahydroisoquinoline], the midpoint of the response, the EC50, lay at 2950 nM.
As for `COc1cc2c(cc1OCc1ccccc1)CCNC2/C=C/c1cc(OC)c(OC)c(OC)c1` (stereo not shown) [Example AM, 6-Benzyloxy-7-methoxy-1-[(E)-2-(3,4,5-trimethoxyphenyl)vinyl]-1,2,3,4-tetrahydroisoquinoline], the EC50 stood at 220 nM.
Take `COc1cc2c(cc1OCc1ccccc1)CCNC2/C=C/c1ccc(OC)c2occc12` (stereo not shown) [Example AN, 6-Benzyloxy-7-methoxy-1-[(E)-2-(7-methoxybenzofuran-4-yl)vinyl]-1,2,3,4-tetrahydroisoquinoline]: the response was half-maximal at 140 nM (EC50).
The compound `COc1cc2c(cc1OCc1ccccc1)CCNC2/C=C/c1ccc(OC)c2ccoc12` (stereo not shown) [Example AO, 6-Benzyloxy-7-methoxy-1-[(E)-2-(4-methoxybenzofuran-7-yl)vinyl]-1,2,3,4-tetrahydroisoquinoline] returned an EC50 of 1130 nM.
Consider `COc1ccc(/C=C/C2c3cc(OC)c(OCc4ccccc4)cc3CCN2C(=O)c2cnccn2)cc1OCc1ccccc1` (stereo not shown) [Example B, [6-Benzyloxy-1-[(E)-2-(3-benzyloxy-4-methoxy-phenyl)vinyl]-7-methoxy-3,4-dihydro-1H-isoquinolin-2-yl]-pyrazin-2-yl-methanone], for which the EC50 worked out at 10000 nM.
With `COc1cc2c(cc1OC)C(/C=C/c1cc(OCc3ccccc3)c(OC)cc1C)NCC2` (stereo not shown) [Example C, 1-[(E)-2-(5-Benzyloxy-4-methoxy-2-methyl-phenyl)vinyl]-6,7-dimethoxy-1,2,3,4-tetrahydroisoquinoline] the figure was 9760 nM; with `CCCCN1CCc2cc(OC)c(OCc3ccccc3)cc2C1/C=C/c1ccc(OCc2ccccc2)c(OC)c1` (stereo not shown) [Example D, 7-Benzyloxy-1-[(E)-2-(4-benzyloxy-3-methoxy-phenyl)vinyl]-2-butyl-6-methoxy-3,4-dihydro-1H-isoquinoline], 8920 nM; with `COc1cc(C)c(/C=C/C2c3cc(OC)c(OCc4ccccc4)cc3CCN2C)cc1OCc1ccccc1` (stereo not shown) [Example E, 6-Benzyloxy-1-[(E)-2-(5-benzyloxy-4-methoxy-2-methyl-phenyl)vinyl]-7-methoxy-2-methyl-3,4-dihydro-1H-isoquinoline], 8470 nM.
With `CCCCN1CCc2cc(OCc3ccccc3)c(OC)cc2C1/C=C/c1ccc(OC)c(OCc2ccccc2)c1` (stereo not shown) [Example G, 6-Benzyloxy-1-[(E)-2-(3-benzyloxy-4-methoxy-phenyl)vinyl]-2-butyl-7-methoxy-3,4-dihydro-1H-isoquinoline] the figure was 5000 nM; with `COC(=O)N1CCc2cc(OCc3ccccc3)c(OC)cc2C1/C=C/c1ccc(OC)c(OCc2ccccc2)c1` (stereo not shown) [Example L, Methyl 6-benzyloxy-1-[(E)-2-(3-benzyloxy-4-methoxy-phenyl)vinyl]-7-methoxy-3,4-dihydro-1H-isoquinoline-2-carboxylate], 2810 nM; with `COc1cc(C)c(/C=C/C2c3cc(OC)c(OCc4ccccc4)cc3CCN2C(=O)NC(C)(C)C)cc1OCc1ccccc1` (stereo not shown) [Example O, 6-benzyloxy-1-[(E)-2-(5-benzyloxy-4-methoxy-2-methyl-phenyl)vinyl]-N-tert-butyl-7-methoxy-3,4-dihydro-1H-isoquinoline-2-carboxamide], 2010 nM.
With `COc1cc(C)c(CCC2NCCc3cc(OCc4ccccc4)c(OC)cc32)cc1OCc1ccccc1` (stereo not shown) [Example Q, 6-benzyloxy-1-[2-(5-benzyloxy-4-methoxy-2-methyl-phenyl)ethyl]-7-methoxy-1,2,3,4-tetrahydroisoquinoline] the figure was 1360 nM; with `COc1cc(/C=C/C2NCCc3cc(OC)c(OCc4ccccc4)cc32)ccc1OCc1ccccc1` (stereo not shown) [Example S, 7-benzyloxy-1-[(E)-2-(4-benzyloxy-3-methoxy-phenyl)vinyl]-6-methoxy-1,2,3,4-tetrahydroisoquinoline], 992 nM; with `COc1cc(C)c(/C=C/C2c3cc(OC)c(OCc4ccccc4)cc3CCN2C(=O)c2ccncc2)cc1OCc1ccccc1` (stereo not shown) [Example U, [6-benzyloxy-1-[(E)-2-(5-benzyloxy-4-methoxy-2-methyl-phenyl)vinyl]-7-methoxy-3,4-dihydro-1H-isoquinolin-2-yl]-(4-pyridyl)methanone], 870 nM.
The compound `COc1ccc(/C=C/C2c3cc(OC)c(OCc4ccccc4)cc3CCN2C)cc1OCc1ccccc1` (stereo not shown) [Example V, 6-benzyloxy-1-[(E)-2-(3-benzyloxy-4-methoxy-phenyl)vinyl]-7-methoxy-2-methyl-3,4-dihydro-1H-isoquinoline] had an EC50 of 780 nM. The EC50 values of the last two compounds are within 1.5-fold of each other.
